{
  "source": "PubChem BioAssay AID1745844",
  "about": "(Carcinogenic Potency Database (CPDB), 2022)",
  "tested_on": "rodent lifetime carcinogenesis bioassay, tumor incidence TD50",
  "assay": "carcinogenic potency in animals, long-term in vivo studies, CPDB compilation (AID 1745844)",
  "note": "Active and inactive are the calls of the source. How the calls were made is not given here.",
  "data": [
    {"smiles": "Nc1ccc(NCCO)c([N+](=O)[O-])c1", "values": [
      {"measurement": "TD50", "setting": "mouse, strain B6C3F1, females, by gavage, site: any site (literature study), lesion: several types, types named in the paper, dosed 104 weeks, study length 105 weeks", "result": 292, "unit": "mg/kg/day"},
      {"measurement": "TD50", "setting": "mouse, strain B6C3F1, females, by gavage, site: forestomach, lesion: squamous-cell papilloma, dosed 104 weeks, study length 105 weeks", "result": 721, "unit": "mg/kg/day"},
      {"measurement": "TD50", "setting": "mouse, strain B6C3F1, females, by gavage, site: lung, lesion: alveolar/bronchiolar adenoma + alveolar/bronchiolar carcinoma, dosed 104 weeks, study length 105 weeks", "result": 4670, "unit": "mg/kg/day"},
      {"measurement": "TD50", "setting": "mouse, strain B6C3F1, males, by gavage, site: liver, lesion: hepatocellular adenoma + hepatocellular carcinoma + neoplastic nodule, dosed 104 weeks, study length 105 weeks", "result": 427, "unit": "mg/kg/day"},
      {"measurement": "TD50", "setting": "mouse, strain B6C3F1, males, by gavage, site: liver, lesion: hepatocellular adenoma + hepatocellular carcinoma, dosed 104 weeks, study length 105 weeks", "result": 427, "unit": "mg/kg/day"},
      {"measurement": "TD50", "setting": "mouse, strain B6C3F1, males, by gavage, site: lung, lesion: alveolar/bronchiolar adenoma + alveolar/bronchiolar carcinoma, dosed 104 weeks, study length 105 weeks", "result": 1750, "unit": "mg/kg/day"},
      {"measurement": "TD50", "setting": "rat, strain Fischer 344, females, by gavage, site: any site (literature study), lesion: several types, types named in the paper, dosed 105 weeks, study length 106 weeks", "result": "4870 mg/kg/day (inactive)"},
      {"measurement": "TD50", "setting": "rat, strain Fischer 344, males, by gavage, site: any site (literature study), lesion: several types, types named in the paper, dosed 105 weeks, study length 106 weeks", "result": "500 mg/kg/day (inactive)"},
      {"measurement": "TD50", "setting": "rat, strain Fischer 344, males, by gavage, site: liver, lesion: hepatocellular adenoma + hepatocellular carcinoma + neoplastic nodule, dosed 105 weeks, study length 106 weeks", "result": "1.51e+06", "unit": "mg/kg/day"}
    ]},
    {"smiles": "CC(=O)[O-].CC(=O)[O-].[OH-].[OH-].[OH-].[OH-].[Pb+2].[Pb+2].[Pb+2]", "values": [
      {"measurement": "carcinogen call", "setting": "mouse, strain Swiss, females, in feed, site: kidney, lesion: adenoma, dosed 104 weeks, study length 104 weeks", "result": "positive"},
      {"measurement": "TD50", "setting": "mouse, strain Swiss, females, in feed, site: kidney, lesion: carcinoma, dosed 104 weeks, study length 104 weeks", "result": 14800, "unit": "mg/kg/day"},
      {"measurement": "TD50", "setting": "mouse, strain Swiss, males, in feed, site: kidney, lesion: adenoma, dosed 86 weeks, study length 104 weeks", "result": 986, "unit": "mg/kg/day"},
      {"measurement": "TD50", "setting": "mouse, strain Swiss, males, in feed, site: kidney, lesion: carcinoma, dosed 86 weeks, study length 104 weeks", "result": 472, "unit": "mg/kg/day"},
      {"measurement": "TD50", "setting": "rat, strain Sprague-Dawley, males, in feed, site: kidney, lesion: several types, types named in the paper, dosed 79 weeks, study length 79 weeks", "result": 266, "unit": "mg/kg/day"},
      {"measurement": "carcinogen call", "setting": "rat, strain Sprague-Dawley, males, in feed, site: liver, lesion: one or several types, types not named, dosed 79 weeks, study length 79 weeks", "result": "negative (inactive)"},
      {"measurement": "TD50", "setting": "rat, strain Wistar, females, in feed, site: kidney, lesion: several types, types named in the paper, dosed 104 weeks, study length 104 weeks", "result": 339, "unit": "mg/kg/day"},
      {"measurement": "TD50", "setting": "rat, strain Wistar, females, in feed, site: kidney, lesion: several types, types named in the paper, dosed 126 weeks, study length 126 weeks", "result": 107, "unit": "mg/kg/day"},
      {"measurement": "TD50", "setting": "rat, strain Wistar, males, in feed, site: kidney, lesion: several types, types named in the paper, dosed 104 weeks, study length 104 weeks", "result": 443, "unit": "mg/kg/day"},
      {"measurement": "TD50", "setting": "rat, strain Wistar, males, in feed, site: kidney, lesion: several types, types named in the paper, dosed 126 weeks, study length 126 weeks", "result": 107, "unit": "mg/kg/day"}
    ]},
    {"smiles": "O[C@H]([C@H](O)[C@@H](O)CBr)[C@H](O)CBr", "values": [
      {"measurement": "TD50", "setting": "mouse, strain Swiss, females, i.p., site: all sites, lesion: leukemia, dosed 26 weeks, study length 78 weeks", "result": 46.3, "unit": "mg/kg/day"},
      {"measurement": "TD50", "setting": "mouse, strain Swiss, females, i.p., site: all sites, lesion: lymphosarcoma, dosed 26 weeks, study length 78 weeks", "result": 12.2, "unit": "mg/kg/day"},
      {"measurement": "TD50", "setting": "mouse, strain Swiss, females, i.p., site: any site (literature study), lesion: benign tumor, dosed 26 weeks, study length 78 weeks", "result": 24.5, "unit": "mg/kg/day"},
      {"measurement": "TD50", "setting": "mouse, strain Swiss, females, i.p., site: any site (literature study), lesion: malignant tumor, dosed 26 weeks, study length 78 weeks", "result": 4.75, "unit": "mg/kg/day"},
      {"measurement": "TD50", "setting": "mouse, strain Swiss, females, i.p., site: any site (literature study), lesion: several types, types named in the paper, dosed 26 weeks, study length 78 weeks", "result": 2.45, "unit": "mg/kg/day"},
      {"measurement": "TD50", "setting": "mouse, strain Swiss, females, i.p., site: lung, lesion: several types, types named in the paper, dosed 26 weeks, study length 78 weeks", "result": 9.23, "unit": "mg/kg/day"},
      {"measurement": "TD50", "setting": "mouse, strain Swiss, males, i.p., site: all sites, lesion: lymphatic leukemia, dosed 26 weeks, study length 78 weeks", "result": 32.4, "unit": "mg/kg/day"},
      {"measurement": "TD50", "setting": "mouse, strain Swiss, males, i.p., site: all sites, lesion: lymphosarcoma, dosed 26 weeks, study length 78 weeks", "result": 17.6, "unit": "mg/kg/day"},
      {"measurement": "TD50", "setting": "mouse, strain Swiss, males, i.p., site: any site (literature study), lesion: malignant tumor, dosed 26 weeks, study length 78 weeks", "result": 15.2, "unit": "mg/kg/day"},
      {"measurement": "TD50", "setting": "mouse, strain Swiss, males, i.p., site: any site (literature study), lesion: several types, types named in the paper, dosed 26 weeks, study length 78 weeks", "result": 12.7, "unit": "mg/kg/day"},
      {"measurement": "TD50", "setting": "mouse, strain Swiss, males, i.p., site: lung, lesion: several types, types named in the paper, dosed 26 weeks, study length 78 weeks", "result": 13.5, "unit": "mg/kg/day"},
      {"measurement": "TD50", "setting": "rat, strain Charles River CD (Sprague-Dawley), males, i.p., site: all sites, lesion: lymphosarcoma, dosed 26 weeks, study length 78 weeks", "result": 182, "unit": "mg/kg/day"},
      {"measurement": "TD50", "setting": "rat, strain Charles River CD (Sprague-Dawley), males, i.p., site: any site (literature study), lesion: malignant tumor, dosed 26 weeks, study length 78 weeks", "result": 5.05, "unit": "mg/kg/day"},
      {"measurement": "TD50", "setting": "rat, strain Charles River CD (Sprague-Dawley), males, i.p., site: any site (literature study), lesion: several types, types named in the paper, dosed 26 weeks, study length 78 weeks", "result": 3.13, "unit": "mg/kg/day"},
      {"measurement": "TD50", "setting": "rat, strain Charles River CD (Sprague-Dawley), males, i.p., site: mammary gland, lesion: squamous-cell carcinoma, dosed 26 weeks, study length 78 weeks", "result": 182, "unit": "mg/kg/day"},
      {"measurement": "TD50", "setting": "rat, strain Charles River CD (Sprague-Dawley), males, i.p., site: peritoneum, lesion: sarcoma, dosed 26 weeks, study length 78 weeks", "result": 59.2, "unit": "mg/kg/day"},
      {"measurement": "TD50", "setting": "rat, strain Charles River CD (Sprague-Dawley), males, i.p., site: skin, lesion: several types, types named in the paper, dosed 26 weeks, study length 78 weeks", "result": 8.37, "unit": "mg/kg/day"}
    ]}
  ]
}
